According to patent US10835516B2, “Protective, anti-inflammatory receptor and its use in preservation of mitochondrial function, wound healing and repair” (The Johns Hopkins University, priority 2011, dated 2020):
Positions count from the first letter of the chain named.

How the values were obtained:
[1] = target: T1, mtAT2R (Rattus norvegicus, UniProt P35351); assay: Mitochondrial respiration, isolated rat heart mitochondria (Seahorse XF96); assay type: biochemical
T1 construct: we examined effects on respiration in rat heart mitochondria; from tissue; host or cells: isolated rat heart or liver mitochondria
T1 sequence (P35351 1-363): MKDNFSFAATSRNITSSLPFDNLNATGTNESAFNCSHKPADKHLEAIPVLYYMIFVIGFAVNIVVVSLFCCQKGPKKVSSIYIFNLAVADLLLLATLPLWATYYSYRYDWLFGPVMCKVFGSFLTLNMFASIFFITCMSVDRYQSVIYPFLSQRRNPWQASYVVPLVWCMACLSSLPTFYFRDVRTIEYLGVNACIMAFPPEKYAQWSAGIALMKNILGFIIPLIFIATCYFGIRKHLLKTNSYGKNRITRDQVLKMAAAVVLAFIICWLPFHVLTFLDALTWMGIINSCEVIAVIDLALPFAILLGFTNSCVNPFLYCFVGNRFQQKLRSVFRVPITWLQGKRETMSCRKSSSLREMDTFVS
Method: Mitochondrial Respiration. For monitoring respiration, isolated mitochondria from rat heart or liver (10 μg of protein per well) were aliquoted into 96 wells of a polyethyleneimine-coated XF96 cell culture microplate (Seahorse Bioscience). The plate was centrifuged at 3,000×g for 10 minutes at 4° C. in an A-4-62 rotor, which control experiments determined caused an attachment of isolated mitochondria that was sufficiently robust to withstand the mixing protocols of the machine. Mitochondria were placed in 300 μL per well of mitochondrial buffer [20 mM Hepes, 137 mM KCl, 2.5 mM MgCl2, 2 mM K2HPO4, 0.5 mM EGTA, and 0.2% (wt/vol) BSA (pH 7.3) at 37° C.]J. Plates were used immediately. The cell culture microplate was incubated and loaded into the Seahorse XF96 extracellular flux analyzer following the manufacturer's instructions. All experiments were performed at 37° C.
Oxygen consumption rate data points refer to the mean rates during the measurement cycles, which consisted of a mixing time of 30 s and a wait time of 2 minutes followed by a data acquisition period of 10 minutes (50 data points). […] The oxygen consumption rates were determined by using a compartment model-based deconvolution algorithm, which compensated for oxygen diffusion phenomena occurring around the entrapped volume and for the response time of the probe. […]

[2] = target: T2, mtAT2R (Mus musculus, UniProt P35374); assay: NO production in isolated kidney mitochondria (NO fluorescent probe); assay type: biochemical; conditions: PD-123319 1 μM; P<0.01
T2 construct: from tissue; host or cells: isolated kidney mitochondria
T2 sequence (P35374 1-363): T1 sequence (P35351 1-363) with L18R, A40S, V88L, S352G
Method: Measurement of Nitric Oxide (NO) Production in Isolated Mitochondria. Kidney mitochondria were isolated by homogenization and differential centrifugation in a medium containing […] of 1 M sucrose, 12 mL of 1 M mannitol, 2.5 mL of 1 M KCL, 1 M Tris-HCL, 0.5 mL of 1 M EDTA, 1.5 mL of 0.1 M EGTA, and 0.1% BSA (pH 7.4). Mitochondria were suspended in incubation solution. Total mitochondrial protein was determined by a Lowry Protein Assay Kit (Sigma-Aldrich). […] The fluorescent products were measured by using a reader equipped with Cyanine 5 (650/670 nm).
AT2Rs Modulate Mitochondrial NO Production. To determine whether mtAT2R activation might modulate mitochondrial NO production in a manner analogous to the actions of non-mtAT2Rs on other NO isoforms, the direct effects of AT2R agonists and antagonists were determined on isolated kidney mitochondria. […] Fluorescence signal was measured by using a multimode microplate reader equipped with Cyanine 5 (650/670 nm). Treatment of mitochondria with CGP421140 caused a concentration-dependent increase in mitochondrial NO production (FIG. 6A); specifically, 10 nM was sufficient to stimulate NO production [from 0.52±0.0009 fluorescence arbitrary units (AU) at baseline control to 0.6+0.01 AU, P<0.001]. […]

[3] = system: mtAT2R; assay: Immunoelectron microscopy of mtAT2R in kidney tubular cells of aged mice on chronic losartan; assay type: in vivo, C57BL/6 mice; conditions: 70-wk-old mice, losartan 40-60 mg/kg per day for 20 wk; aged untreated 10.2+2.2, young 25.5+6.2
Method: (§1) Immunolocalization of AT1R, AT2R, and Ang. Immunogold electron microscopy was performed as described (Am. J. Physiol. Endocrinot. Metab., 286:E1011-E1022 (2004)). In brief, mouse tissues were fixed in 4% formaldehyde in 0.1 M sodium cacodylate supplemented with 3% sucrose (wt/vol) and 3 mM CaCl2 and cryoprotected in 2.3 M sucrose overnight in polyvinylpyrrolidone (Sigma). Ultrathin sections were cut on a Leica Ultracut UCT microtome, and sections were placed on Formvar-coated nickel 200-mesh hexagonal grids. The sections were incubated in primary antibody against rabbit anti-AT2R, goat anti-Ang, or goat anti-AT1R antibody overnight at 4° C. at a concentration of 10 μg/mL. […] Primary antibodies were detected with either 6-nm colloidal gold donkey anti-goat or 12-nm colloidal goat anti-rabbit (Jackson ImmunoResearch) diluted 1:20 in PBS for 1 hour. Final contrasting of the sections was done by incubating them in 2% methyl cellulose (Sigma) and 0.3% uranyl acetate (Ted Pella) for 10 min at 4° C. All sections were viewed with a Philips CM 120 TEM transmission electron microscope at an accelerating voltage of 80 kV. Images were taken with a Gatan Orius SC 1000 digital camera. Photographs for representative sections were taken.

[4] = Blood pressure and general health of mice on chronic losartan
Method: Human and Animal Groups. Mitochondria were studied in adult human monocytes (20-30 y old), adult human skeletal muscle tissue, adult rats (24 wk old), adult (20 wk old) and aged (70 wk old) mice, and a human cell line. Adult mice at 50 wk of age were treated with the AT1R blocker losartan at doses of 40-60 mg/kg per day for 20 wk. All experiments were approved by the Johns Hopkins Animal Care and use Committee and the Johns Hopkins Institutional Review Board. Weight, blood urea nitrogen, creatinine, and albumin were measured in adult (20 wk) and aged (70 wk) mice and in aged mice on losartan treatment. […] We visually inspected each animal carcass after the dissection for any abnormalities.

[5] = system: wounds; assay: Wound healing in db/db mice, losartan started at different phases; assay type: in vivo, BKS.Cg-m+/+Lepr^db/J(db/db) mice; conditions: 8 week old db/db mice; preliminary data
Text: In order to provide additional rationale for using losartan ointment at day 7 of wound treatment, preliminary data was developed on the effects of losartan on all phases of wound healing in 8 week old BKS.Cg-m+/+Lepr^db/J(db/db) mice (FIGS. 11, 12).

[6] = system: 8-mm excisional wounds; assay: Full thickness excisional wound healing, daily topical cream; assay type: in vivo, mice; conditions: after three days of treatment, FIG. 8
Method: For wound-healing experiments, animal procedures were approved by the Johns Hopkins University Animal Care and Use Committee. During the experiments the animals were-housed one per cage, maintained under controlled environmental conditions (12 hours light to dark cycle, temperature approximately 23° C.), and provided with standard laboratory food and water ad libitum. 16 male mice with average weight of 30 g were divided into two groups. Mice were anesthetized with ketamine hydrochloride (100 mg/kg) and xylazine (10 mg/kg), and the dorsum was shaved and then treated with a depilatory (Nair cream, Church & Dwight Co., Princeton, N.J.). Two symmetrical full thickness excisional wounds created on their back using an 8-mm punch biopsy instrument. No dressing was used after burn. The animals were resuscitated according to the Parkland formula (4 mL/kg/percent body area) by intraperitoneal injection of saline within 1 hour after wound. Animals were divided into two groups; A and B. One group received daily application of an angiotensin receptor blocker cream to both wounds per animal and the other received vehicle. Researchers were blinded to the identity of the cream applied. We used digital photography and computerized planimetry to assess the rate of wound healing in either group.

[7] = system: mtAT1R; assay: Immunoelectron microscopy of mtAT1R in kidney tubular cells of aged mice on chronic losartan; assay type: in vivo, C57BL/6 mice; conditions: 70-wk-old mice, losartan 40-60 mg/kg per day for 20 wk; aged untreated 12.7+5.8, young 2.0+2.2
Method: as §1

Cc1cc(Cn2cnc3c2C[C@@H](C(=O)O)N(C(=O)C(c2ccccc2)c2ccccc2)C3)ccc1N(C)C [PD-123319]
CGP421140-inhibited state 3 respiration restored by PD-123319 ([1]; 100 nM CGP421140 + PD-123319 1 μM, P<0.01): 66.83±2.1 pmol/min per μg | CGP421140-stimulated NO production after pretreatment with PD-123319 [2]: 0.55±0.006 AU

COC(=O)[C@@H](N)CCCNC(=N)N[N+](=O)[O-] [L-NAME, L-N^G-nitroarginine methyl ester]
CGP421140-inhibited state 3 respiration reversed by L-NAME ([1]; 100 nM CGP421140 + L-NAME 1 μM, P<0.05): 67.4±4.3 pmol/min per μg

CCCCc1nc(Cl)c(CO)n1Cc1ccc(-c2ccccc2-c2nn[nH]n2)cc1 [losartan]
mtAT2R expression [3]: 39.0+2.6 gold-labeled AT2R per mitochondrion | evidence of malignancy on carcass inspection ([4]; 10 animals per group): did not observe any evidence of malignancy | weight, blood urea nitrogen, creatinine, and albumin ([4]; adult, aged and aged mice on losartan, data not shown): no significant difference | decrease in blood pressure ([4]; losartan 40-60 mg/kg per day for 20 wk): 10-15% | healing and elasticity, treatment starting at day 7 compared to day 1 [5]: accelerated healing and improved elasticity | wound granulation versus vehicle [6]: more granulation | mtAT1R expression [7]: 11.0+2.1 gold-labeled AT1R per mitochondrion
